Where two headings read alike, the source gives them in different places.
Legend:
[1] = parameters: method as in Pacylex, data on file; conditions: preclinical models; ref Pacylex, data on file; cited from earlier work
[2] = tested on: advanced solid tumors and relapsed/refractory (R/R) B-cell lymphomas; test: Anticancer activity in phase I patients (RECIST 1.1 / Lugano, Kaplan-Meier); assay type: in vivo, human; conditions: for No. of patients with best response SD: evaluable patients n = 24
Protocol: Tumor response assessments using CT imaging were performed every two cycles. RECIST 1.1 [11] or the Lugano Response Criteria for Lymphoma was used to determine tumor response and disease progression. For B-cell NHL patients with PET-CT at baseline, PET-CT was repeated after the sixth cycle to confirm complete response or disease progression. Patient archival specimens and blood samples were submitted for exploratory molecular analyses. Descriptive statistics were used for demographic, safety, and efficacy data. Categorical data were summarized using frequency counts and percentages. Time-to-event variables were analyzed by Kaplan-Meier methods. Weighted trajectory analysis for health outcomes used the Chauhan methodology.

[3] = tested on: patient derived xenograft models of refractory DLBCL; parameters: method as in PMID 33093447; conditions: cited from earlier work
[4] = parameters: method as in Pacylex, data on file; conditions: preclinical models; ref Pacylex, data on file; cited from earlier work; remark: listed apart in the source
[5] = tested on: CYP3A4; parameters: method as in Pacylex, data on file; conditions: preclinical models; ref Pacylex, data on file; cited from earlier work
[6] = tested on: rats; conditions: rat, in vivo; cited from earlier work
[7] = tested on: human AML; parameters: method as in doi:10.1182/blood-2022-170544; conditions: murine tail-vein injection models of human AML; cited from earlier work
[8] = parameters: method as in doi:10.1182/blood-2019-124934; conditions: multiple daily oral administration; cited from earlier work
[9] = tested on: dogs; conditions: dog, in vivo; cited from earlier work
[10] = human, in vivo
Protocol: (§1) Peripheral blood samples were collected over six time points in the first 8 h of Cycle 1, Day 1 (C1D1), and again on C1D15. Pre-treatment Day 1 levels were obtained with every subsequent cycle.

[11] = tested on: ADP-ribosylation factor 6 (ARF6); parameters: method as in Pacylex, data on file; conditions: cultured colon cancer cells; ref Pacylex, data on file; cited from earlier work
[12] = clinical; conditions: human, in vivo; for AUC(0-t): AUC0 − 24 (h*ng/mL) (mean, SD); for Cmax: Cmax (ng/ml) (mean, SD)
Protocol: as §1

[13] = tested on: off-target kinase; parameters: method as in doi:10.1182/blood-2019-124934; conditions: cited from earlier work
[14] = MTD cohort 210 mg daily (n = 7) vs lower dose cohorts (n = 17)

**Q.** Which oral bioavailability [1] does the source give for `Cc1c(NS(=O)(=O)c2c(Cl)cc(-c3ccnc(N4CCNCC4)c3)cc2Cl)c(CC(C)C)nn1C` [zelenirstat] here?
**A.** high oral bioavailability

**Q.** And the “Overall Survival (Kaplan-Meier)” value [2, 14]?
**A.** statistically significantly longer overall survival

**Q.** And the “Progression-Free Survival (Kaplan-Meier)” value [2, 14]?
**A.** statistically significantly longer PFS

**Q.** What about the objective responses ([2]; all dose cohorts) of the same compound?
**A.** No objective responses

**Q.** And the “No. of patients with best response SD” value ([2]; dose level 2: 40 mg, pancreatic adenocarcinoma)?
**A.** 1

**Q.** What about the “No. of patients with best response SD” value ([2]; dose level 5: 140 mg, CRC) of the same compound?
**A.** 1

**Q.** And the “No. of patients with best response SD” value ([2]; dose level 6: 210 mg, CRC (2), ovarian (2), appendiceal carcinoma)?
**A.** 5

**Q.** And the “No. of patients with best response SD” value ([2]; dose level 7: 280 mg, after DLT modified to 210 mg daily, bladder)?
**A.** 1

**Q.** And the “Stable disease as best response, patients” value ([2]; eight of 29 patients, all dose cohorts)?
**A.** 28%

**Q.** What about the “reduction in serum carcinoembryonic antigen (CEA) level” value ([2]; one patient, metastatic colon adenocarcinoma, 210 mg) of the same compound?
**A.** 48%

**Q.** What about the duration on zelenirstat ([2]; one patient, metastatic colon adenocarcinoma, 210 mg, SD, continuing) of the same compound?
**A.** ≥ 420 days

**Q.** What about the “reduction in sum of longest dimensions of the target lesions” value ([2]; one patient, metastatic colon adenocarcinoma, 210 mg, ongoing) of the same compound?
**A.** 13%

**Q.** What about the “reduction in cancer antigen 125 (CA125)” value ([2]; one patient, refractory ovarian cancer, 210 mg) of the same compound?
**A.** 20%

**Q.** And the xenograft tumor response [3]?
**A.** profound tumor regression and complete remissions

**Q.** What about the plasma protein binding [4] of the same compound?
**A.** highly bound to plasma protein

**Q.** What about the metabolism [5] of the same compound?
**A.** metabolized in the liver primarily by CYP3A4

**Q.** And the “toxicities in formal toxicologic evaluation” value [6]?
**A.** acute gastrointestinal and hematologic toxicities

**Q.** What about the leukemic cell burden [7] of the same compound?
**A.** reduced the leukemic cell burden

**Q.** And the “dose limiting toxicity in GLP non-clinical safety testing” value [8]?
**A.** diarrhea was dose limiting

**Q.** What about the “toxicities in formal toxicologic evaluation” value [9] of the same compound?
**A.** acute gastrointestinal and hematologic toxicities

**Q.** And the “Plasma concentrations (Cmax and AUC values) in patients on PPIs compared to patients not taking PPIs” value [10]?
**A.** tended to be lower

**Q.** What about the “Systemic exposure (Cmax and AUC values) versus dose” value [10] of the same compound?
**A.** tended to increase with increasing dose

**Q.** What about the “time to steady state (visual observation of pre-dose concentrations)” value [10] of the same compound?
**A.** 8 to 15 days

**Q.** What about the “accumulation following repeated administration” value ([10]; 14 day) of the same compound?
**A.** < 2 fold

**Q.** What about the “accumulation ratio for AUC0 − 24 (ArAUC0−24)” value ([10]; 14 day) of the same compound?
**A.** 1.0-1.9

**Q.** And the “accumulation ratio for Cmax (ArCmax)” value ([10]; 14 day)?
**A.** 0.41-1.72

**Q.** And the “accumulation ratios for both ArCmax and ArAUC0−24” value ([10]; 14 days)?
**A.** 3-6 fold

**Q.** What about the “time to steady state” value ([10]; po) of the same compound?
**A.** ≤ 15 days

**Q.** And the “AUC0 − 24 (h*ng/mL) (mean, SD)” value ([10]; po, 20 mg)?
**A.** 2066 (387) h*ng/mL

**Q.** And the “Cmax (ng/ml) (mean, SD)” value ([10]; po, 20 mg)?
**A.** 276 (117) ng/ml

**Q.** What about the “Tmax (h) (median, range)” value ([10]; po, 20 mg) of the same compound?
**A.** 1 (0.5–2.1) h

**Q.** And the “t1/2 (h) (mean, SD)” value ([10]; po, 20 mg)?
**A.** 7.4 (2.0) h

**Q.** What about the “AUC0 − 24 (h*ng/mL) (mean, SD)” value ([10]; po, 40 mg) of the same compound?
**A.** 7060 (6711) h*ng/mL

**Q.** What about the “Cmax (ng/ml) (mean, SD)” value ([10]; po, 40 mg) of the same compound?
**A.** 774 (720) ng/ml

**Q.** What about the “t1/2 (h) (mean, SD)” value ([10]; po, 40 mg) of the same compound?
**A.** 9.7 (3.0) h

**Q.** And the “AUC0 − 24 (h*ng/mL) (mean, SD)” value ([10]; po, 70 mg)?
**A.** 6613 (3526) h*ng/mL

**Q.** And the “Cmax (ng/ml) (mean, SD)” value ([10]; po, 70 mg)?
**A.** 467 (257) ng/ml

**Q.** What about the “Tmax (h) (median, range)” value ([10]; po, 70 mg) of the same compound?
**A.** 4.1 (4.0-7.9) h

**Q.** And the “AUC0 − 24 (h*ng/mL) (mean, SD)” value ([10]; po, 100 mg)?
**A.** 18,936 (9188) h*ng/mL

**Q.** And the “Cmax (ng/ml) (mean, SD)” value ([10]; po, 100 mg)?
**A.** 2188 (1037) ng/ml

**Q.** What about the “Tmax (h) (median, range)” value ([10]; po, 100 mg) of the same compound?
**A.** 2.0 (2.0-3.8) h

**Q.** And the “t1/2 (h) (mean, SD)” value ([10]; po, 100 mg)?
**A.** 8.0 (2.3) h

**Q.** And the “AUC0 − 24 (h*ng/mL) (mean, SD)” value ([10]; po, 140 mg)?
**A.** 8150 (2846) h*ng/mL

**Q.** What about the “Cmax (ng/ml) (mean, SD)” value ([10]; po, 140 mg) of the same compound?
**A.** 1335 (964) ng/ml

**Q.** What about the “Tmax (h) (median, range)” value ([10]; po, 140 mg) of the same compound?
**A.** 2.0 (1.0–2.0) h

**Q.** What about the “t1/2 (h) (mean, SD)” value ([10]; po, 140 mg) of the same compound?
**A.** 10.4 (5.5) h

**Q.** And the “AUC0 − 24 (h*ng/mL) (mean, SD)” value ([10]; po, 210 mg)?
**A.** 27,558 (13,349) h*ng/mL

**Q.** What about the “Cmax (ng/ml) (mean, SD)” value ([10]; po, 210 mg) of the same compound?
**A.** 2935 (1047) ng/ml

**Q.** And the “Tmax (h) (median, range)” value ([10]; po, 210 mg)?
**A.** 2.0 (1.0-3.9) h

**Q.** And the “t1/2 (h) (mean, SD)” value ([10]; po, 210 mg)?
**A.** 7.7 (3.4) h

**Q.** And the “myristoylation of ARF6” value [11]?
**A.** inhibits the myristoylation

**Q.** And the half-life ([12]; half-life values across the dose cohorts)?
**A.** 7.67 to 12 h

**Q.** And the Tmax ([12]; maximum Tmax value in patients taking PPI)?
**A.** ~8 h

**Q.** What about the half-life ([12]; mean terminal half-life across the dose cohorts) of the same compound?
**A.** 6.7 to 9.5 h

**Q.** And the Tmax ([12]; median Tmax range in patients taking proton pump inhibitors (PPI))?
**A.** 1 to 6 h

**Q.** And the AUC(0-t) ([12]; po, 20 mg)?
**A.** 1580 ng·h/mL

**Q.** And the Cmax ([12]; po, 20 mg)?
**A.** 359 ng/mL

**Q.** What about the Tmax ([12]; po, 20 mg, Tmax (h) (median, range)) of the same compound?
**A.** 2 h

**Q.** And the half-life ([12]; po, 20 mg, t1/2 (h) (mean, SD))?
**A.** 6.7 h

**Q.** And the AUC(0-t) ([12]; po, 40 mg)?
**A.** 4820 ng·h/mL

**Q.** What about the Cmax ([12]; po, 40 mg) of the same compound?
**A.** 848 ng/mL

**Q.** What about the half-life ([12]; po, 40 mg, t1/2 (h) (mean, SD)) of the same compound?
**A.** 9.2 h

**Q.** What about the AUC(0-t) ([12]; po, 70 mg) of the same compound?
**A.** 5650 ng·h/mL

**Q.** What about the Cmax ([12]; po, 70 mg) of the same compound?
**A.** 665 ng/mL

**Q.** And the Tmax ([12]; po, 70 mg, Tmax (h) (median, range))?
**A.** 3.9 h

**Q.** What about the half-life ([12]; po, 70 mg, t1/2 (h) (mean, SD)) of the same compound?
**A.** 9.5 h

**Q.** And the AUC(0-t) ([12]; po, 100 mg)?
**A.** 24700 ng·h/mL

**Q.** What about the Cmax ([12]; po, 100 mg) of the same compound?
**A.** 2300 ng/mL

**Q.** And the Tmax ([12]; po, 100 mg, Tmax (h) (median, range))?
**A.** 4 h

**Q.** What about the half-life ([12]; po, 100 mg, t1/2 (h) (mean, SD)) of the same compound?
**A.** 12 h

**Q.** What about the AUC(0-t) ([12]; po, 140 mg) of the same compound?
**A.** 11900 ng·h/mL

**Q.** What about the Cmax ([12]; po, 140 mg) of the same compound?
**A.** 1770 ng/mL

**Q.** What about the Tmax ([12]; po, 140 mg, Tmax (h) (median, range)) of the same compound?
**A.** 1 h

**Q.** And the half-life ([12]; po, 140 mg, t1/2 (h) (mean, SD))?
**A.** 7.2 h

**Q.** And the AUC(0-t) ([12]; po, 210 mg)?
**A.** 14700 ng·h/mL

**Q.** What about the Cmax ([12]; po, 210 mg) of the same compound?
**A.** 1770 ng/mL

**Q.** And the Tmax ([12]; po, 210 mg, Tmax (h) (median, range))?
**A.** 3 h

**Q.** And the half-life ([12]; po, 210 mg, t1/2 (h) (mean, SD))?
**A.** 7.8 h

**Q.** And the Tmax ([12]; po, median Tmax values across the dose cohorts)?
**A.** 1 to 4 h

**Q.** What about the half-life ([12]; po, terminal half-lives, average) of the same compound?
**A.** 10 h

**Q.** What about the Tmax ([12]; po, time of peak plasma concentrations) of the same compound?
**A.** 2 h

**Q.** And the off-target kinase inhibition [13]?
**A.** no relevant off-target kinase inhibition
